This note sets out measurements from ChEMBL document CHEMBL1140855, “Design, synthesis, and binding affinities of potential positron emission tomography (PET) ligands with optimal lipophilicity for brain imaging of the dopamine D3 receptor. Part II” (Bioorg Med Chem, 2009).

Data set [1] is described as follows: Lipophilicity, log P of the compound. It counts as physicochemical. The following applies: octanol/water.
A further data set concerns the target D(2) dopamine receptor (Homo sapiens, UniProt P14416).
Data set [2] can be described thus: Lipophilicity, log P at pH 7.4. It counts as physicochemical. The following applies: buffer.
Data set [3] in a line: Dissociation constant, pKa of the compound. It counts as physicochemical.
The target of a further data set is D(3) dopamine receptor (Homo sapiens, UniProt P35462).
Chain of D(3) dopamine receptor (P35462 whole entry): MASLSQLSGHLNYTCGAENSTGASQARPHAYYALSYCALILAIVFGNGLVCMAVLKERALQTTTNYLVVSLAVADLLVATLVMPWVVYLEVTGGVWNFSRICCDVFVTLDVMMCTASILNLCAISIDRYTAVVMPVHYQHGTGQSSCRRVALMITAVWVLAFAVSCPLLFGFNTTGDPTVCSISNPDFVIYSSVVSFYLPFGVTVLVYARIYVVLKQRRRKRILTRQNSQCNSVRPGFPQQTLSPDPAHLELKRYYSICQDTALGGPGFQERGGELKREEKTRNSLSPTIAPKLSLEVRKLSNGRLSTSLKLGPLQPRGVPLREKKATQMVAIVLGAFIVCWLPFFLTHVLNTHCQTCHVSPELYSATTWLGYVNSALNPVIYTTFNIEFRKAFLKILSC

The structures appear in SMILES notation.

Chain of D(2) dopamine receptor (P14416 whole entry): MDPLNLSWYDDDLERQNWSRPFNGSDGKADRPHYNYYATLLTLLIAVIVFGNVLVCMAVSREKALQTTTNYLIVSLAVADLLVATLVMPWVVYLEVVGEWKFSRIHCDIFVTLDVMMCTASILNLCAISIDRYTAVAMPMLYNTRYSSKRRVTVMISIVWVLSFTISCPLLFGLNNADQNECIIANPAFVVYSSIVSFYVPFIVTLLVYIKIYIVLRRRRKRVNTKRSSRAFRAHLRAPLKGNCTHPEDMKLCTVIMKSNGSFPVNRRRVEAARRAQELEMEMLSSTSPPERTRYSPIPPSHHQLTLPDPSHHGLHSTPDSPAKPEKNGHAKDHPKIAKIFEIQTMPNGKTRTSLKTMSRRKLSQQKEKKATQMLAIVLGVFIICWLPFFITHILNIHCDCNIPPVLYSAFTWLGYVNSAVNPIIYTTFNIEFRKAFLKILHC
Description for D(2) dopamine receptor: Displacement of [3H]spiroperidol from human cloned dopamine D2L receptor by liquid scintillation counting
Description for D(3) dopamine receptor: Displacement of [3H]spiroperidol from human cloned dopamine D3 receptor by liquid scintillation counting

Broadly, the logP is the decadic logarithm of the partition coefficient of the neutral form, usually between octanol and water. Lower therefore signals a more hydrophilic compound. In general, Ki refers to the dissociation constant of the complex between target and ligand, obtained from inhibition or displacement. A higher Ki goes with lower affinity. What is called logD is the decadic logarithm of the distribution of all forms, ionised or not, between an organic phase and buffer at a given pH. A higher logD goes with higher lipophilicity. In general, pKa refers to the negative logarithm of the acid dissociation constant. High values mean a group that holds its proton tightly, low ones a group that gives up its proton readily. In the case of `COc1ccccc1N1CCN(CCCCNC(=O)c2ccc(-n3ccnc3)cc2)CC1`, in data set [1], the logP was 3.1. Also, the Ki at D(2) dopamine receptor was 51.7 nM; on D(3) dopamine receptor, 4.23 nM. The pH-dependent lipophilicity (logD) in data set [2] worked out at 2.39. Moreover, in data set [3], the pKa was 8.05.
Regarding `CCCN(CCC)C1CCc2cc(CS(=O)(=O)c3ccc(OC)cc3)ccc2C1` (configuration not stated), at D(3) dopamine receptor, the Ki came to 1.3 nM.
`COc1ccccc1N1CCN(CCCCNC(=O)c2ccc3nonc3c2)CC1` showed a log partition coefficient (logP) in data set [1] of 2.79. For the same compound, the inhibitory constant (Ki) at D(2) dopamine receptor was found to be 31 nM; on D(3) dopamine receptor, 4.7 nM. In data set [2], this compound displayed a logD of 2.26. In addition, the pKa in data set [3] was found to be 7.78.
In turn, `COc1ccc(N2CCN(CCCCNC(=O)c3ccc4nonc4c3)CC2)cc1` displayed a logP in data set [1] of 2.77. For the same compound, the figures for the inhibition constant (Ki) at D(2) dopamine receptor and on D(3) dopamine receptor were above 1000 nM and 6220 nM, respectively. Moreover, the pH-dependent lipophilicity (logD) in data set [2] turned out to be 2.41. The pKa in data set [3] was 7.51.
As for `COc1ccccc1N1CCN(CCCNC(=O)c2ccc3nonc3c2)CC1`, in data set [1], the log partition coefficient (logP) came out at 2.66. For the same compound, the Ki was 89.4 nM at D(2) dopamine receptor and above 1000 nM at D(3) dopamine receptor. The logD in data set [2] was 2.34. Besides, the pKa in data set [3] came to 7.43.
The corresponding values for `O=C(NCCCCN1CCN(c2ccccc2OCCF)CC1)c1ccc(-n2ccnc2)cc1` are 2.9, 5.92 nM, 2.95 nM, 2.4 and 7.74.
The matching figures for `COc1ccc(N2CCN(CCCCNC(=O)c3ccc(-n4ccnc4)cc3)CC2)cc1`: 2.8, above 1000 nM, 211 nM, 2.37 and 7.64.
Consider `COc1cc(F)cc(N2CCN(CCCCNC(=O)c3ccc4nonc4c3)CC2)c1`, for which the lipophilicity (logP) in data set [1] amounted to 3.34. Also, the Ki was 1340 nM on D(2) dopamine receptor and 658 nM on D(3) dopamine receptor. In data set [2], the logD is 3.12. The same compound gave a pKa in data set [3] of 7.34.
In data set [1], `COc1cccc(N2CCN(CCCCNC(=O)c3ccc4nonc4c3)CC2)c1` came in with a log partition coefficient (logP) of 2.8. Besides, the Ki is above 100 nM at D(2) dopamine receptor and 170 nM on D(3) dopamine receptor. This compound gave a logD in data set [2] of 2.48. Also, the pKa in data set [3] is 7.44.
The corresponding values for `O=C(NCCCCN1CCN(c2cccc(OCCF)c2)CC1)c1ccc(-n2ccnc2)cc1` are 2.9, 196 nM, 47.2 nM, 2.51 and 7.56.
The corresponding values for `O=C(NCCCCN1CCN(c2cccc(OCCF)c2)CC1)c1ccc2nonc2c1` are 2.87, above 1000 nM, 226 nM, 2.53 and 7.47.
For `COc1ccccc1N1CCN(CCCCOc2ccc(C3CN4C=CSC4=N3)cc2)CC1` (configuration not stated), affinity at D(3) dopamine receptor was put at a Ki of 0.12 nM.
Take `COc1ccccc1N1CCN(CCCNC(=O)c2ccc(-n3ccnc3)cc2)CC1`: in data set [1], the logP was 2.59. The inhibition constant Ki on D(2) dopamine receptor is 121 nM; on D(3) dopamine receptor it was 95.3 nM. In data set [2], this compound came in with a pH-dependent lipophilicity (logD) of 2.22. Further, in data set [3], the pKa stood at 7.53.
The matching figures for `COc1cccc(N2CCN(CCCCNC(=O)c3ccc(-n4ccnc4)cc3)CC2)c1`: 2.93, 243 nM, 19.9 nM, 2.51 and 7.59.
Take `COc1cc(F)cc(N2CCN(CCCCNC(=O)c3ccc(-n4ccnc4)cc3)CC2)c1`: the logP in data set [1] came out at 3.16. Also, the Ki on D(2) dopamine receptor amounted to 133 nM; at D(3) dopamine receptor, 29.2 nM. The same compound came in with a log distribution coefficient (logD) in data set [2] of 2.8. The compound also returned a pKa in data set [3] of 7.52.
The matching figures for `O=C(NCCCCN1CCN(c2ccccc2OCCF)CC1)c1ccc2nonc2c1`: 2.79, 17.8 nM, 22.1 nM, 2.26 and 7.78.
